The values that follow come from patent US20240150841A1, “TAP63 REGULATED ONCOGENIC LONG NON-CODING RNAS” (H. LEE MOFFITT CANCER CENTER AND RESEARCH INSTITUTE, INC., priority 2021, published 2024).

Counter-ions that a name gives are not always drawn.

The test system of one series is CA1D cells. The series can be described thus: Annexin V assay (apoptosis / cell death) time course in CA1D cells. The series is classed as cell-based, human. The procedure: Cells were plated at a density of 1×10^4 cells in 6 replicates in a 96-well plate. Three biological replicates were performed per each assay. To evaluate cell proliferation, the cells were labelled for 3 h with […] EdU (5′-ethynyl-2′-deoxyuridine) and stained using the Click-iT EdU microplate assay (Invitrogen). Apoptosis was monitored by incubating the cells with Annexin V-Alexa Fluor 488 (Essen BioScience) according to the manufacturer's instructions Images were captured and percent of either cell proliferation or apoptosis was quantified using a high-throughput immunofluorescence plate reader and accompanying software (IncuCyte, Essen Bioscience).
To see how effective the administration of an anti-cancer treatment alone or in combination with siRNA targeting TROLL2 and/or TROLL-3 was, CA1D cells were administered treatment and […] of the cells was measured by Annexin V staining. As shown in FIGS. 14A-14F cells with high levels of TROLLs were either limited in response to treatment or resistant.

The next series has as its system TROLL-2. Kind of series: qRT-PCR for TROLL-2 in triple negative breast cancer cells treated with drugs. The note with it: for expression of TROLL-2 following treatment: CA1D, BT-20, BT-549, MDA-MB-231, for at least 48 hours following treatment; for expression of TROLL-2 by the end of the 72 hour course: TNBC cell lines. The series is classed as cell-based, human. Here is the method: (§1) Total RNA was prepared using TRIzol reagent (Invitrogen)5. For gene expression analysis, complementary DNA was synthesized from 5 μg of total RNA using the SuperScript II First-Strand Synthesis Kit (Invitrogen) according to the manufacturer's protocol followed by qRT-PCR using the TaqMan® Universal PCR Master Mix (Applied Biosystems). qRT-PCR was performed using a QuantStudio 6 flex PCR machine (Applied Biosystems) and each qRT-PCR was performed in triplicate.
(§2) We wanted to examiner the effects anti-cancer treatments on the level of TROLLs overtime.

The next series relates to TROLL-3. The series can be described thus: qRT-PCR for TROLL-3 in triple negative breast cancer cells treated with drugs. The series is classed as cell-based, human. The note with it: for expression of TROLL-3 following treatment: CA1D, BT-20, BT-549, MDA-MB-231, for at least 48 hours following treatment; for expression of TROLL-3 by the end of the 72 hour course: TNBC cell lines. The procedure:
as §1, §2
In general terms: Real-time PCR tracks product formation cycle by cycle.

For a further series, the target named is WDR26 (endogenous) (UniProt Q9H7D7).
Chain of UniProt Q9H7D7 (Q9H7D7 whole entry): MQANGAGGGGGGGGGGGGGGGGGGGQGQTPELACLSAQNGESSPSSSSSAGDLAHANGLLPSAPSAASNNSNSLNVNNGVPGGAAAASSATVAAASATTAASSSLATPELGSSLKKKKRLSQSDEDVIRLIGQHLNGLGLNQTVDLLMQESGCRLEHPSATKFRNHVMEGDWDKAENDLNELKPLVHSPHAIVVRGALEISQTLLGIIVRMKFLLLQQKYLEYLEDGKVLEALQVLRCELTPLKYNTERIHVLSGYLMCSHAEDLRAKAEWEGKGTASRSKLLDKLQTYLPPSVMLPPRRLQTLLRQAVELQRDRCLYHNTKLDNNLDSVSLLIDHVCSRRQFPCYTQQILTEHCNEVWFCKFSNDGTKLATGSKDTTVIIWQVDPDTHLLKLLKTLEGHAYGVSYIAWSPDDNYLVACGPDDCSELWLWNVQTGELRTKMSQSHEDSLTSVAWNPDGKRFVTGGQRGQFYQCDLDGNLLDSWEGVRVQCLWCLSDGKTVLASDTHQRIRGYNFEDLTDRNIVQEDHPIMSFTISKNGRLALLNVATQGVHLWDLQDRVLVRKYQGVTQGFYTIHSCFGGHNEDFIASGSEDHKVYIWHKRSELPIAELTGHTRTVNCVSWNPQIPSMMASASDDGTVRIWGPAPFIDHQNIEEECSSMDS

On to `COc1cccc2c1C(=O)c1c(O)c3c(c(O)c1C2=O)C[C@@](O)(C(=O)CO)C[C@@H]3O[C@H]1C[C@H](N)[C@H](O)[C@H](C)O1` [Adriamycin, Doxorubicin Hydrochloride], for which, in the series with CA1D cells, the “response to drug in TNBC with high levels of TROLLs (in particular TROLL-2 and TROLL-3)” value was “limited response”; the “response to drug in TNBC with low levels of TROLLs (in particular TROLL-2 and TROLL-3)” value (from here on “response to drug in TNBC with low levels”) is “sensitivity”. Further, in the series with TROLL-2, the “expression of TROLL-2 following treatment” value is reported as “reduced expression” and the “expression of TROLL-2 by the end of the 72 hour course” value is “increased expression”. Further, in the series with TROLL-3, the “expression of TROLL-3 following treatment” value is “reduced expression” and the “expression of TROLL-3 by the end of the 72 hour course” value is given as “increased expression”.
`CCCCCOC(=O)Nc1nc(=O)n([C@@H]2O[C@H](C)[C@@H](O)[C@H]2O)cc1F` [capecitabine]: in the series on CA1D cells, the “response to drug in TNBC with high levels of TROLLs (in particular TROLL-2 and TROLL-3)” value is reported as “resistance”; the “response to drug in TNBC with low levels” value was “partial response”. Moreover, in the series on TROLL-2, the “expression of TROLL-2 following treatment” value is “reduced expression” and the “expression of TROLL-2 by the end of the 72 hour course” value is “increased expression”. In the series on TROLL-3, the “expression of TROLL-3 following treatment” value was “reduced expression” and the “expression of TROLL-3 by the end of the 72 hour course” value was “increased expression”.
With `N.N.O=C([O-])C1(C(=O)[O-])CCC1.[Pt+2]` [carboplatin], in the series with CA1D cells, the “response to drug in TNBC with high levels of TROLLs (in particular TROLL-2 and TROLL-3)” value is “resistance”; the “response to drug in TNBC with low levels” value is reported as “partial response”. For the same compound, in the series with TROLL-2, the “expression of TROLL-2 following treatment” value is given as “reduced expression” and the “expression of TROLL-2 by the end of the 72 hour course” value was “increased expression”. Also, in the series with TROLL-3, the “expression of TROLL-3 following treatment” value is reported as “reduced expression” and the “expression of TROLL-3 by the end of the 72 hour course” value is given as “increased expression”.
As for `O=P1(N(CCCl)CCCl)NCCCO1` (stereo not shown) [cyclophosphamide], in the series on CA1D cells, the “response to drug in TNBC with high levels of TROLLs (in particular TROLL-2 and TROLL-3)” value is given as “resistance”; the “response to drug in TNBC with low levels” value was “partial response”. In addition, the “expression of TROLL-2 following treatment” value in the series on TROLL-2 is given as “reduced expression”. Besides, in the series with TROLL-3, the “expression of TROLL-3 following treatment” value was “reduced expression”.
Turning to `CC(=O)O[C@@]12CO[C@@H]1C[C@H](O)[C@@]1(C)C(=O)[C@H](O)C3=C(C)[C@@H](OC(=O)[C@H](O)[C@@H](NC(=O)OC(C)(C)C)c4ccccc4)C[C@@](O)([C@@H](OC(=O)c4ccccc4)[C@H]21)C3(C)C` [docetaxel], in the series on CA1D cells, the “response to drug in TNBC with high levels of TROLLs (in particular TROLL-2 and TROLL-3)” value is “limited response”; the “response to drug in TNBC with low levels” value is given as “sensitivity”. For the same compound, the “expression of TROLL-2 following treatment” value in the series on TROLL-2 is given as “reduced expression”. Besides, in the series on TROLL-3, the “expression of TROLL-3 following treatment” value is reported as “reduced expression”.
As to `CC(=O)O[C@H]1C(=O)[C@@]2(C)[C@H]([C@H](OC(=O)c3ccccc3)[C@]3(O)C[C@H](OC(=O)[C@H](O)[C@@H](NC(=O)c4ccccc4)c4ccccc4)C(C)=C1C3(C)C)[C@]1(OC(C)=O)CO[C@@H]1C[C@@H]2O` [paclitaxel], in the series on CA1D cells, the “response to drug in TNBC with high levels of TROLLs (in particular TROLL-2 and TROLL-3)” value was “limited response”; the “response to drug in TNBC with low levels” value is recorded as “sensitivity”. In addition, the “expression of TROLL-2 following treatment” value in the series with TROLL-2 is “reduced expression”. For the same compound, the “expression of TROLL-3 following treatment” value in the series with TROLL-3 is “reduced expression”.
Turning to AKT (endogenous), the “AKT phosphorylation levels (pAKT S473, western blot)” value with WDR26 (endogenous) is “a decrease in AKT phosphorylation levels”.
